The values below come from patent US12194029B1, “Ethyl-1-(substitutedbenzoyl)-5-methylpyrrolo[1,2-a]quinoline-3-carboxylates as anticancer agents” (KING FAISAL UNIVERSITY, priority 2023, dated 2025).

Assay [1] concerns human breast cancer cell line (MCF-7). Description: MTT cell viability / in vitro cytotoxicity assay, MCF-7. The class given is cell-based. Conditions: MCF7, MCF-7 cells, 48 h incubation, read-out: anticancer IC50 MCF-7. On the procedure:
(§1) The human breast cancer cell line (MCF-7), and adeno carcinomic human alveolar basal epithelial cell line (A-549), were used in the present study for the investigation of cell viability assay of the synthesized compounds.
(§2) The cells were seeded in a 96-well flat-bottom microplate and maintained at 37° C. in 95% humidity and 5% CO2 overnight. The microplates were then treated with different concentrations (5-100 μM) of the samples. The cells were incubated for another 48 h. The wells were washed twice with PBS and 20 μL of the MTT staining solution was added to each well and the plate was incubated at 37° C. After 4 h, 100 μL of DMSO was added to each well to dissolve the formazan crystals and absorbance was recorded with a 570 nm using a microplate reader.
(§3) In vitro cytotoxicity was performed by 3-(4,5-dimethylthiazol-2-yl)-2,5-di-phenyltetrazolium bromide (MTT) assay. Tested compounds were dissolved in DMSO by heating at 95° C. for 10 min, cooled at room temperature and final stock concentration of 1 mg/mL was prepared in DMEM (final DMSO concentration was <1%). The stock solutions were serially diluted to obtain the concentration range of 25 to 400 μM using DMEM, and cells were treated in triplicates. Untreated cells represented a control group and pac. treated as a positive control. After 48 h of incubation, the media was aspirated, 100 μL MTT (1 mg/mL) was added to each well and the plate was incubated at 37° C. for 4 h. After incubation, the media/MTT solution was aspirated and 100 μL DMSO was added to all the wells. Using a multi-mode microplate reader, a uniform shaking (for 5 min) was applied to dissolve Formazan crystals and the absorbance was recorded at 570 nm. Cell viability was calculated using the following equation: […]
(§4) The 50% […] inhibitory concentration (IC50) was determined using Prism software version 7. Using graph Pad Prism Version 5.1, IC50 values of the compounds were calculated.
(§5) Statistical analysis of the cytotoxicity data was performed on GraphPad Prism. All cytotoxicity experiments were conducted in triplicates. Results were analyzed as the standard error of the mean (SEM) and one-way analysis of variance (ANOVA) and the Dunnet multiple comparison test was used to evaluate the treated groups and the control. Further Bonferroni post-tests were performed for comparison of the complex with cis-platin. Differences were considered significant when p<0.05.

The test system of assay [2] is adeno carcinomic human alveolar basal epithelial cell line (A-549). Kind of assay: MTT cell viability / in vitro cytotoxicity assay, A-549. Type of assay: cell-based. Conditions: A549, A-549 cells, 48 h incubation, read-out: anticancer IC50 A-549. On the procedure: as §1, §2, §3, §4, §5

For `COC(=O)c1c(C(=O)OC)c2cc(C)c3ccccc3n2c1C(=O)c1ccccc1[N+](=O)[O-]` [Compound 3c, Dimethyl-5-methyl-1-(2-nitrobenzoyl)pyrrolo[1,2-a]quinoline-2,3-dicarboxylate], the values for the IC50 in assay [1] and in assay [2] were 15 nM and 316 nM, respectively.
`COC(=O)c1c(C(=O)OC)c2cc(C)c3ccccc3n2c1C(=O)c1cc(C(F)(F)F)cc(C(F)(F)F)c1` [Compound 3a, Dimethyl-1-(3,5-bis(trifluoromethyl)benzoyl)-5-methylpyrrolo[1,2-a]quinoline-2,3-dicarboxylate]: the IC50 (usually the midpoint of a concentration-inhibition curve) worked out at 272 nM in assay [1] and 433 nM in assay [2].
The like results for `CCOC(=O)c1cc(C(=O)c2cc(C(F)(F)F)cc(C(F)(F)F)c2)n2c1cc(C)c1ccccc12` [Compound 3b, Ethyl-1-(3,5-bis(trifluoromethyl)benzoyl)-5-methylpyrrolo[1,2-a]quinoline-3-carboxylate] were, in that order, 27 nM and 99 nM.
The corresponding values for `CCOC(=O)c1cc(C(=O)c2ccccc2[N+](=O)[O-])n2c1cc(C)c1ccccc12` [Compound 3d, Ethyl-5-methyl-1-(2-nitrobenzoyl)pyrrolo[1,2-a]quinoline-3-carboxylate] are 85 nM and 291 nM.
The like results for `COC(=O)c1c(C(=O)OC)c2cc(C)c3ccccc3n2c1C(=O)c1ccc(F)cc1` [Compound 3i, Dimethyl-1-(4-fluorobenzoyl)-5-methylpyrrolo[1,2-a]quinoline-2,3-dicarboxylate] were, in that order, 209 nM and 183 nM.
